Assay [1] concerns the target T1, PTPN2 (B16F10.4 cells) (Mus musculus, UniProt Q06180).
T1 construct: HiBiT; host or cells: B16F10.4
T1 sequence (Q06180 1-406): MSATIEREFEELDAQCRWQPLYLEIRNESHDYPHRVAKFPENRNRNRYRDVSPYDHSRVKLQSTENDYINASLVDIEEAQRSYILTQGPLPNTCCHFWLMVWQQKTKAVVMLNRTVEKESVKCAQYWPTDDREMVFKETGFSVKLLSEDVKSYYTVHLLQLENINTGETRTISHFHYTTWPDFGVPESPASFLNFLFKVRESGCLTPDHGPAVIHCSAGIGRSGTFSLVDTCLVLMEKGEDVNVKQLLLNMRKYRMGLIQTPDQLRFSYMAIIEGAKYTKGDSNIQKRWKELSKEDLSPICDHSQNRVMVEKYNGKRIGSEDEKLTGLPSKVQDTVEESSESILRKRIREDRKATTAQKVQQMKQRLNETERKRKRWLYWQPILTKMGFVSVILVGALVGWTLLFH
Nature of the assay: HiBiT Degradation B16F10.4 PTPN2. The class given is cell-based. As to conditions: 24.0 hours. A general note: The HiBiT peptide binds its large partner to form an active luciferase.

For assay [2], the target named is T2, PTPN2 (HiBIT-PTPN2 in 293T.109 cells) (Homo sapiens, UniProt P17706).
T2 construct: expressed in transfected cells; host or cells: 293T.109 (293T WT from ATCC)
T2 sequence (P17706 1-415): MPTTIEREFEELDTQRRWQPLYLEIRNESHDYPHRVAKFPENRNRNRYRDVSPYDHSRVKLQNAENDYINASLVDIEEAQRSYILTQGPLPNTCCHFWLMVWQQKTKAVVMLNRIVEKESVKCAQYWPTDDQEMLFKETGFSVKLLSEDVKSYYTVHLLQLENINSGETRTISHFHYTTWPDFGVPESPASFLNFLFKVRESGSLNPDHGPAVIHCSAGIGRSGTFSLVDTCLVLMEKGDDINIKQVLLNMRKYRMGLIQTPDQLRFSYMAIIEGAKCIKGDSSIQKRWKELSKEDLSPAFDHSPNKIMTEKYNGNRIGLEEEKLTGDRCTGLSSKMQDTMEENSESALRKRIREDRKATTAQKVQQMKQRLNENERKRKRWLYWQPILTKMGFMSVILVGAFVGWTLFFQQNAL
Kind of assay: HiBiT Degradation 293T.109 PTPN2 (Nano-Glo HiBiT Lytic Assay). In kind it is cell-based. As to conditions: 24.0 hours. The method, boiled down: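 Degradation read-out: lytic HiBiT luminescence after 24 h treatment (37 °C, 5% CO2) of 5000 293T cells per well expressing HiBiT-fused PTPN2 from an N-terminal tag. Dosing was 11 points, half-log steps down from 10 μM, in duplicate; vehicle-treated and no-reagent wells served as controls.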

This is an account of results in patent US20250302815A1, “PROTEIN TYROSINE PHOSPHATASE TARGETING LIGANDS” (CALICO LIFE SCIENCES LLC, priority 2021, published 2025).

For orientation: DC50 means the midpoint of the concentration-degradation curve.

For the compound `CC1(C)C[C@@H](Nc2cccc(-c3sc(C(=O)O)c(OCC(=O)O)c3Cl)c2)CCN1S(=O)(=O)Cc1cccc(NC(=O)CCN2CCC(Nc3cccc4c3CN(C3CCC(=O)NC3=O)C4=O)CC2)c1` (stereo partly drawn) [Example 46, 3-(carboxymethoxy)-4-chloro-5-(3-(((4S)-1-((3-(3-(4-((2-(2,6-dioxopiperidin-3-yl)-1-oxoisoindolin-4-yl)amino)piperidin-1-yl)propanamido)benzyl)sulfonyl)-2,2-dimethylpiperidin-4-yl)amino)phenyl)thiophene-2-carboxylic acid], the DC50 is 200 to 1000 nM in assay [1] and less than 50 nM in assay [2].
The corresponding values for `CC1(C)C[C@@H](Nc2cccc(-c3sc(C(=O)O)c(OCC(=O)O)c3Cl)c2)CCN1S(=O)(=O)Cc1cccc(NCCNCCCc2ccc3c4c(cccc24)C(=O)N3C2CCC(=O)NC2=O)c1` (some centres unmarked) [Example 201] are 50 to 200 nM and 50 to 200 nM.
In the same order, the values of `Cn1c(=O)n(C2CCC(=O)NC2=O)c2ccc(Nc3cccc(CC(=O)Nc4cccc(CS(=O)(=O)N5CC[C@H](Nc6cccc(-c7sc(C(=O)O)c(OCC(=O)O)c7Cl)c6)CC5(C)C)c4)c3)cc21` (stereo partly drawn) [Example 191, 3-(carboxymethoxy)-4-chloro-5-(3-(((4S)-1-((3-(2-(3-((1-(2,6-dioxopiperidin-3-yl)-3-methyl-2-oxo-2,3-dihydro-1H-benzo[d]imidazol-5-yl)amino)phenyl)acetamido)benzyl)sulfonyl)-2,2-dimethylpiperidin-4-yl)amino)phenyl)thiophene-2-carboxylic acid] are 50 to 200 nM and 50 to 200 nM.
In the same order, the values of `Cn1c(=O)n(C2CCC(=O)NC2=O)c2ccc(C3CCN(C(=O)Nc4cccc(CS(=O)(=O)N5CC[C@@H](Oc6cccc(-c7sc(C(=O)O)c(OCC(=O)O)c7Cl)c6)CC5(C)C)c4)CC3)cc21` (stereo partly drawn) [Example 226, 3-(carboxymethoxy)-4-chloro-5-(3-(((4R)-1-((3-(4-(1-(2,6-dioxopiperidin-3-yl)-3-methyl-2-oxo-2,3-dihydro-1H-benzo[d]imidazol-5-yl)piperidine-1-carboxamido)benzyl)sulfonyl)-2,2-dimethylpiperidin-4-yl)oxy)phenyl)thiophene-2-carboxylic acid] are 50 to 200 nM and 200 to 1000 nM.
On to `CC1(C)C[C@@H](Nc2cccc(-c3sc(C(=O)O)c(OCC(=O)O)c3Cl)c2)CCN1S(=O)(=O)Cc1cccc(NC(=O)[C@H]2CC[C@@H](c3ccc4c5c(cccc53)C(=O)N4C3CCC(=O)NC3=O)CC2)c1` (stereo partly drawn) [Example 166, 3-(carboxymethoxy)-4-chloro-5-(3-(((4S)-1-((3-((1s,4R)-4-(1-(2,6-dioxopiperidin-3-yl)-2-oxo-1,2-dihydrobenzo[cd]indol-6-yl)cyclohexane-1-carboxamido)benzyl)sulfonyl)-2,2-dimethylpiperidin-4-yl)amino)phenyl)thiophene-2-carboxylic acid], for which the DC50 in assay [1] and in assay [2] was 50 to 200 nM throughout.
`CC1(C)C[C@@H](Nc2cccc(-c3sc(C(=O)O)c(OCC(=O)O)c3Cl)c2)CCN1S(=O)(=O)Cc1cccc(NC(=O)CCOCCOCCOCCCc2cccc3c2C(=O)N(C2CCC(=O)NC2=O)C3=O)c1` (stereo partly drawn) [Example 35, 3-(carboxymethoxy)-4-chloro-5-[3-[[(4S)-1-[[3-[3-[2-[2-[3-[2-(2,6-dioxo-3-piperidyl)-1,3-dioxo-isoindolin-4-yl]propoxy]ethoxy]ethoxy]propanoylamino]phenyl]methylsulfonyl]-2,2-dimethyl-4-piperidyl]amino]phenyl]thiophene-2-carboxylic acid]: the DC50 in assay [1] and in assay [2] was 200 to 1000 nM in each case.
As for `O=C(O)COc1c(C(=O)O)sc(-c2cccc(NC3CCN(S(=O)(=O)Cc4cccc(NC(=O)CCOCCOCCCc5cccc6c5C(=O)N(C5CCC(=O)NC5=O)C6=O)c4)CC3)c2)c1Cl` (centres unmarked) [Example 20, 3-(carboxymethoxy)-4-chloro-5-[3-[[1-[[3-[3-[2-[3-[2-(2,6-dioxo-3-piperidyl)-1,3-dioxo-isoindolin-4-yl]propoxy]ethoxy]propanoylamino]phenyl]methylsulfonyl]-4-piperidyl]amino]phenyl]thiophene-2-carboxylic acid], the DC50 was no less than 1000 nM in assay [1] and 200 to 1000 nM in assay [2].
In the same order, the values of `CC1(C)C[C@@H](Nc2cccc(-c3sc(C(=O)O)c(OCC(=O)O)c3Cl)c2)CCN1S(=O)(=O)Cc1cccc(NC(=O)N2CCC(c3cnc4c(c3)c3ccccc3n4C3CCC(=O)NC3=O)CC2)c1` (stereo partly drawn) [Example 218, 3-(carboxymethoxy)-4-chloro-5-[3-[[(4S)-1-[[3-[[4-[9-(2,6-dioxo-3-piperidyl)pyrido[2,3-b]indol-3-yl]piperidine-1-carbonyl]amino]phenyl]methylsulfonyl]-2,2-dimethyl-4-piperidyl]amino]phenyl]thiophene-2-carboxylic acid] are 200 to 1000 nM and 200 to 1000 nM.
In the case of `CC1(C)C[C@H](Nc2cccc(-c3sc(C(=O)O)c(OCC(=O)O)c3Cl)c2)CCN1S(=O)(=O)Cc1cc(NC(=O)N2CCC(c3ccc4c5c(cccc35)C(=O)N4C3CCC(=O)NC3=O)CC2)ccc1F` (some centres unmarked) [Example 162], the figures for the DC50 in assay [1] and in assay [2] were less than 50 nM and 200 to 1000 nM, respectively.
The corresponding values for `Cn1c(=O)n(C2CCC(=O)NC2=O)c2ccc(C3CCN(C(=O)Nc4cccc(CS(=O)(=O)N5CC[C@H](Nc6cc(-c7sc(C(=O)O)c(OCC(=O)O)c7Cl)ccc6F)CC5(C)C)c4)CC3)cc21` (stereo partly drawn) [Example 132, 3-(carboxymethoxy)-4-chloro-5-[3-[[(4S)-1-[[3-[[4-[1-(2,6-dioxo-3-piperidyl)-3-methyl-2-oxo-benzimidazol-5-yl]piperidine-1-carbonyl]amino]phenyl]methylsulfonyl]-2,2-dimethyl-4-piperidyl]amino]-4-fluoro-phenyl]thiophene-2-carboxylic acid] are 50 to 200 nM and 200 to 1000 nM.
Regarding `Cn1c(=O)n(C2CCC(=O)NC2=O)c2ccc(Cc3ccc(CC(=O)Nc4cccc(CS(=O)(=O)N5CC[C@H](Nc6cccc(-c7sc(C(=O)O)c(OCC(=O)O)c7Cl)c6)CC5(C)C)c4)cc3)cc21` (stereo partly drawn) [Example 236, 3-(carboxymethoxy)-4-chloro-5-[3-[[(4S)-1-[[3-[[2-[4-[[1-(2,6-dioxo-3-piperidyl)-3-methyl-2-oxo-benzimidazol-5-yl]methyl]phenyl]acetyl]amino]phenyl]methylsulfonyl]-2,2-dimethyl-4-piperidyl]amino]phenyl]thiophene-2-carboxylic acid], the DC50 in assay [1] and in assay [2] was less than 50 nM in each case.
Consider `CC1(C)C[C@@H](Nc2cccc(-c3sc(C(=O)O)c(OCC(=O)O)c3Cl)c2)CCN1S(=O)(=O)Cc1cccc(NC(=O)N2CCC[C@H](c3ccc4c5c(cccc35)N(C3CCC(=O)NC3=O)C4=O)CC2)c1` (stereo partly drawn) [Example 223, 3-(carboxymethoxy)-4-chloro-5-(3-(((4S)-1-((3-((4S)-4-(1-(2,6-dioxopiperidin-3-yl)-2-oxo-1,2-dihydrobenzo[cd]indol-5-yl)azepane-1-carboxamido)benzyl)sulfonyl)-2,2-dimethylpiperidin-4-yl)amino)phenyl)thiophene-2-carboxylic acid], for which the 50% degradation concentration (DC50) in assay [1] is 50 to 200 nM; in assay [2], 200 to 1000 nM.
`CC(C)n1c(=O)n(C2CCC(=O)NC2=O)c2ccc(C3CCN(C(=O)Nc4cccc(CS(=O)(=O)N5CC[C@H](Nc6cccc(-c7sc(C(=O)O)c(OCC(=O)O)c7Cl)c6)CC5(C)C)c4)CC3)cc21` (single isomer, unassigned) [Example 87b]: the DC50 in assay [1] and in assay [2] was 50 to 200 nM throughout.
